From patent US20100206809A1, “METHOD AND APPARATUS FOR TREATING ORGANIC MATTER-CONTAINING WATER” (KURITA WATER INDUSTRIES LTD., priority 2007, published 2010) come the findings set out here.

The subject of series [1] is viable cells. The series is described as follows: Viable cell counts at measuring points, industrial water treatment (FIG. 1 embodiment). As for the experimental part: The water that had been subjected to the coagulation-filtration treatment was passed through an activated carbon column at an SV of 20 hr^−1. Then the water was passed through an RO membrane separator (with an aromatic-polyamide ultra-low-pressure RO membrane “ES-20”, manufactured by Nitto Denko Corporation) at a permeate flow of 60 L/hr and a recovery rate of 80%.
In Example 1 and Comparative Example 1, viable cell counts were measured at several points.
In Examples 2 to 5, concentrations of combined chlorine in activated carbon feed water (water fed into the activated carbon column) and activated carbon-treated water (water from the activated carbon column) were measured, and viable cell counts in the activated carbon-treated water were measured.
In Examples 6 to 9, concentrations of combined chlorine and viable cell counts in the activated carbon-treated water were measured.

The subject of series [2] is viable cells. The series is described as follows: Viable cell counts at measuring points, nonionic surfactant-containing wastewater treatment (FIG. 2 embodiment). On the procedure:
[…] Next, an EDTA-based scale inhibitor (Welclean A801, manufactured by Kurita Water Industries Ltd.) was added in an amount of 10 mg/L (five times the weight of the concentration of calcium ions in softening column-treated water). NaOH was added to adjust the pH to 10.5. Then the water was passed through an RO membrane separator (with an aromatic-polyamide ultra-low-pressure RO membrane “ES-20”, manufactured by Nitto Denko Corporation) at a permeate flow of 60 L/hr and a recovery rate of 80% to perform RO membrane separation treatment.
In Example 10 and Comparative Example 2, viable cell counts were measured at several points.
In Examples 11 to 14, viable cell counts in the activated carbon-treated water and the softened water were measured.
In Examples 15 to 18, viable cell counts in the activated carbon-treated water and the softening column-treated water were measured.

Series [3] is described as follows: Daily change in flux through the RO membrane separator. On the procedure: The water that had been subjected to the coagulation-filtration treatment was passed through a fixed-bed activated carbon column at an SV of 20 hr^−1 and then a softening column at an SV of 15 hr^−1. Next, an EDTA-based scale inhibitor (Welclean A801, manufactured by Kurita Water Industries Ltd.) was added in an amount of 10 mg/L (five times the weight of the concentration of calcium ions in softening column-treated water). […] Then the water was passed through an RO membrane separator (with an aromatic-polyamide ultra-low-pressure RO membrane “ES-20”, manufactured by Nitto Denko Corporation) at a permeate flow of 60 L/hr and a recovery rate of 80% to perform RO membrane separation treatment.
Treatment was performed under the same conditions as those in Example 10, except that the pH of the softening column-treated water was adjusted in such a manner that the pH of the RO feed water was 6 (Reference Example 1) or 8.5 (Reference Example 2).
In Example 10, Comparative Example 2, and Reference Examples 1 and 2, daily changes in flux through the RO membrane separator were measured.

The mark [4] stands for this setting: Example 11, chloramine T added 0.5 mg-Cl2/L (combined chlorine), SV 20 hr^-1, wastewater.
[5] abbreviates: Example 12, chloramine T added 0.8 mg-Cl2/L (combined chlorine), SV 20 hr^-1, wastewater.
[6] abbreviates: Example 15, SV through activated carbon column 10 hr^-1, combined chlorine 1 mg-Cl2/L, wastewater.
[7] abbreviates: Example 16, SV through activated carbon column 15 hr^-1, combined chlorine 1 mg-Cl2/L, wastewater.
Where [8] appears, read: day 1, Example 10 (chloramine T 5 mg-Cl2/L) / Comparative Example 2 (NaClO 0.5 mg-Cl2/L), RO feed water pH 9.5.
Setting [9] is: day 7, Example 10 (chloramine T 5 mg-Cl2/L) / Comparative Example 2 (NaClO 0.5 mg-Cl2/L), RO feed water pH 9.5.
[10] abbreviates: Example 1 (chloramine T, combined chlorine 5 mg-Cl2/L) / Comparative Example 1 (NaClO, free chlorine 0.5 mg-Cl2/L), SV 20 hr^-1.
The mark [11] stands for this setting: Example 10 (chloramine T, combined chlorine 5 mg-Cl2/L) / Comparative Example 2 (NaClO, free chlorine 0.5 mg-Cl2/L), wastewater TOC 20 mg/L, SV 20 hr^-1.

Regarding `Cc1ccc(S(=O)(=O)[N-]Cl)cc1.[Na+]` [Chloramine T, sodium N-chloro-p-toluenesulfonamide trihydrate], the “Viable cells at all measuring points” value with viable cells [1] (Example 1, combined chlorine 5 mg-Cl2/L, SV 20 hr^-1) is “no viable cells were detected”; in the series on viable cells [2] (Example 10, combined chlorine 5 mg-Cl2/L, wastewater, SV 20 hr^-1), “no viable cells were detected”. Further, the “Viable cell count in activated carbon-treated water” value in the series on viable cells [1] (Example 2, combined chlorine in activated carbon feed water 0.5 mg/L, SV 20 hr^-1) was 4 × 10^3 cells/ml; in the series on viable cells [1] (Example 3, combined chlorine in activated carbon feed water 0.8 mg/L, SV 20 hr^-1) it was 5 × 10^3 cells/ml; with viable cells [1] (Example 6, SV through activated carbon column 10 hr^-1, combined chlorine 1 mg-Cl2/L), 9 × 10^3 cells/mil; in the series with viable cells [1] (Example 7, SV through activated carbon column 15 hr^-1, combined chlorine 1 mg-Cl2/L), 2 × 10^3 cells/mil. Besides, the “Viable cell count, activated carbon-treated water” value with viable cells [2] (setting [4]) is given as 3 × 10^4 cells/ml; in the series with viable cells [2] (setting [5]) it was 6 × 10^3 cells/ml; with viable cells [2] (setting [6]), 9 × 10^4 cells/ml; in the series with viable cells [2] (setting [7]), 2 × 10^5 cells/ml. The “Viable cell count, softened water” value in the series on viable cells [2] (setting [4]) was 4 × 10^5 cells/ml; in the series on viable cells [2] (setting [5]) it was 8 × 10^4 cells/ml; with viable cells [2] (setting [6]) it was 2 × 10^6 cells/ml; with viable cells [2] (setting [7]), 7 × 10^6 cells/ml. The “Reduction in flux through the RO membrane separator” value in series [3] (Example 10, chloramine T 5 mg-Cl2/L, RO feed water pH 9.5) is “no reduction in flux”. In addition, the Flux is given as 1.0 m^3/m^2 · day in series [3] (setting [8]); 0.98 m^3/m^2 · day in series [3] (day 1, Reference Example 1, chloramine T 5 mg-Cl2/L, RO feed water pH 6); 0.99 m^3/m^2 · day in series [3] (day 1, Reference Example 2, chloramine T 5 mg-Cl2/L, RO feed water pH 8.5); 0.95 m^3/m^2 · day in series [3] (setting [9]); 0.98 m^3/m^2 · day in series [3] (day 7, Reference Example 1, chloramine T 5 mg-Cl2/L, RO feed water pH 6); 0.97 m^3/m^2 · day in series [3] (day 7, Reference Example 2, chloramine T 5 mg-Cl2/L, RO feed water pH 8.5). For the same molecule, the Flux is reported as 0.95 m^3/m^2 · day in series [3] (day 30, Example 10 (chloramine T 5 mg-Cl2/L) / Comparative Example 2 (NaClO 0.5 mg-Cl2/L), RO feed water pH 9.5); 0.97 m^3/m^2 · day in series [3] (day 30, Reference Example 1, chloramine T 5 mg-Cl2/L, RO feed water pH 6); 0.97 m^3/m^2 · day in series [3] (day 30, Reference Example 2, chloramine T 5 mg-Cl2/L, RO feed water pH 8.5); 0.93 m^3/m^2 · day in series [3] (day 60, Example 10 (chloramine T 5 mg-Cl2/L), RO feed water pH 9.5); 0.93 m^3/m^2 · day in series [3] (day 90, Example 10 (chloramine T 5 mg-Cl2/L), RO feed water pH 9.5).

As to `OCl` [NaClO, sodium hypochlorite, reference compound], the “Viable cells detected in the activated carbon-treated water” value with viable cells [1] (Comparative Example 1, free chlorine 0.5 mg-Cl2/L, SV 20 hr^-1) is listed as 10^3 viable cells per milliliter; with viable cells [2] (Comparative Example 2, free chlorine 0.5 mg-Cl2/L, wastewater), 10^5 viable cells per milliliter. Further, the “Viable cell count, RO feed water” value with viable cells [1] (setting [10]) is given as 4 × 10^3 cells/ml. In the series with viable cells [1] (setting [10]), the “Viable cell count, RO-concentrated water” value is 2 × 10^5 cells/ml. Further, the “Viable cell count, activated carbon-treated water” value in the series with viable cells [1] (setting [10]) is recorded as 5 × 10^3 cells/ml; with viable cells [2] (setting [11]) it was 10^5 cells/ml. Further, the “Viable cells detected in the softening column-treated water” value with viable cells [2] (Comparative Example 2, free chlorine 0.5 mg-Cl2/L, wastewater, sampled before the addition of the alkali) is recorded as 10^6 viable cells per milliliter. Also, the “Viable cell count, softened water” value in the series with viable cells [2] (setting [11]) is on record as 10^6 cells/ml. Besides, the Flux in series [3] (setting [8]) is 0.98 m^3/m^2 · day; in series [3] (setting [9]) it was 0.96 m^3/m^2 · day.
